Results published in PMC2733134, “A novel hydroxyfuroic acid compound as an insulin receptor activator - structure and activity relationship of a prenylindole moiety to insulin receptor activation” (Journal of Biomedical Science, 2009).
pEC50, pIC50: −log10 of the molar value. Like-named read-outs stand apart in the source and are kept apart here.

Key:
[1] = molecular target: T1, human insulin receptor (Homo sapiens, UniProt P06213); experiment: Insulin receptor activation assay (CHO cells overexpressing human insulin receptor, Ab-3 capture, tyrosine kinase activity); assay type: cell-based; conditions: for % activation, tyrosine kinase activity compared to 10 nM insulin stimulation (Study 1) / % activation, tyrosine kinase activity compared to 10 nM insulin stimulation (Study 2): test concentration 100 μM; for Study 1, cpm, phosphoryl incorporation by tyrosine kinase activities / Study 2, cpm, phosphoryl incorporation by tyrosine kinase activities: hydroxyfuroic acid compounds 100 μM, insulin 10 nM
T1 construct: expressed in transfected cells; host or cells: CHO cells (gift of Dr. Richard Roth, Stanford University)
Description: The insulin receptor activation assay is based on the assay described by Zhang et al. with minor modifications. Briefly, approximately 100,000 CHO cells overexpressing human recombinant insulin receptor were suspended in 100 μl of Ham's F-12 medium containing 10% fetal bovine serum (FBS) and seeded into each well of a 96-well plate. Cells were incubated at 37°C with 5% CO2 aeration overnight. CHO cells were rinsed with phosphate buffered saline (PBS) 3 times and starved in serum free Ham's F-12 medium for 2 hours before being stimulated with desired concentration of insulin or test compound for 20 minutes. Test compounds were predissolved in DMSO as 100× stocks and serially diluted when necessary. Stimulated CHO cells were then rinsed 3 times with PBS and lysed in 60 μl of lysis buffer. Fifty μl of the lysate was transferred to a well on a Flexible Assay Plate that was precoated with Ab-3 antibody recognizing the β-subunit of insulin receptor. The well was then rinsed 3 times with Tris buffered saline (TBS) containing 0.1% Tween20 and thrown dried by hand before 10 μl of tyrosine kinase reaction mixture (50 mM HEPES, pH7.4, 5 mM MgCl2, 5 mM MnCl2, 1 mg/mL polyGlu/Tyr and 250,000 cpm γ-P^33 ATP/well) was added. The reaction was carried out at 25°C for 40 minutes and terminated by adding 50 μl ice cold 100 mM phosphoric acid. Fifty μl of the stopped reaction mixture was then transferred to an inch square P81 paper. The P81 paper was air dried and then rinsed in Millipore water 5 times to remove leftover radioactive ATP and product ADP. Five mL of scintillation cocktail was added to the paper before the count was read in a liquid scintillation counter.
(§1) The 50% effective or inhibition concentrations were determined with the standard curve analysis of SigmaPlot 8.02. The nonlinear regression equation is y = min+(max-min)/(1+(x/EC50)^Hill Slope) where y is the observed responses; x is the dose concentrations; max and min are approximated by the program automatically during the calculation.
To validate the insulin receptor activation assay, dose response curve of bovine insulin was determined. […] In subsequent experiments, we routinely included 1, 10, and 100 nM insulin as standard reference. […] For simplicity, the efficacies of hydroxyfuroic acid compounds were expressed as percentage of activities comparing to the response provided by 10 nM insulin stimulation in parallel. To distinguish human insulin receptor kinase from other tyrosine kinases in CHO cells, Ab-3, a human insulin receptor β-subunit specific monoclonal antibody, was used to absorb insulin receptor from the CHO cell lysate, so the radioactivity catalyzed by captured tyrosine kinase is attributable to insulin receptor tyrosine kinase activity.

[2] = molecular target: T2, Recombinant human IGF-1 receptor (Homo sapiens, UniProt P08069); experiment: IGF-1 receptor tyrosine kinase activity assay; assay type: biochemical; conditions: mid μM of compound, Fig. 6A
T2 construct: purchased R&D systems (Minneapolis, MN)
T2 sequence (P08069 31-1367): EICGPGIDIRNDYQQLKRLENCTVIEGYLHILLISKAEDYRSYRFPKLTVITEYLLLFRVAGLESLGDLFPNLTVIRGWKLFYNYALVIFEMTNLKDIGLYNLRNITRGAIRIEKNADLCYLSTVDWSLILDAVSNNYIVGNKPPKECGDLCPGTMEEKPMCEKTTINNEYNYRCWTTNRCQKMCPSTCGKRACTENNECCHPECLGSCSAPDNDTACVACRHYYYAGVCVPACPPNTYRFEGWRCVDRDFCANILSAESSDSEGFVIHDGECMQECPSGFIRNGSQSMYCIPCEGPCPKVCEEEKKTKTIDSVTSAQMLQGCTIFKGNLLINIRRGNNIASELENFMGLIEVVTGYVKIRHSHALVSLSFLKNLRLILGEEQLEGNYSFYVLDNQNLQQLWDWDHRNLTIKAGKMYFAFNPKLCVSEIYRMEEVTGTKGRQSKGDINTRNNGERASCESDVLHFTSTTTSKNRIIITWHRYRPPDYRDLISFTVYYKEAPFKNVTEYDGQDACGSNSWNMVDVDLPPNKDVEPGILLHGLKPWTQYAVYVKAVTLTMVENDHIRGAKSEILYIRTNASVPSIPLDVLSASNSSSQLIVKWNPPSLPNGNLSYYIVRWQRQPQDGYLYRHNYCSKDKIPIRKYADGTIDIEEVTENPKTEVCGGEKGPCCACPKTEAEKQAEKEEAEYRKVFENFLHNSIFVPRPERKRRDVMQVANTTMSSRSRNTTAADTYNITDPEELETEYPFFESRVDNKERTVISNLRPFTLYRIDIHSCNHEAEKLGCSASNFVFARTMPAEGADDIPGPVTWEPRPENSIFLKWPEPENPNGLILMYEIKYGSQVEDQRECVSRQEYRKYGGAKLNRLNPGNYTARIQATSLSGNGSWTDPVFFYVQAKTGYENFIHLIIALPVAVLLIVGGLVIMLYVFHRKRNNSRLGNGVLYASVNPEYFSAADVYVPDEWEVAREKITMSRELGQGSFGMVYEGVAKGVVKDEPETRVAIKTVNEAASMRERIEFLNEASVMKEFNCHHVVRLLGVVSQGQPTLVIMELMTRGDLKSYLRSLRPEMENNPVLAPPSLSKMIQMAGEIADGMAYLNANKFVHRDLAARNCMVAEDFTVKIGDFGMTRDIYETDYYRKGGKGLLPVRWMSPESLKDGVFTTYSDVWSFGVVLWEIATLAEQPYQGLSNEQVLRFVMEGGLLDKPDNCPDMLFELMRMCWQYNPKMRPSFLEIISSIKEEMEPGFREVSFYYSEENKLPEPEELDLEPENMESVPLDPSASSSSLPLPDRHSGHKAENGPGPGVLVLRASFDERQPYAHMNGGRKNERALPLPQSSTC
Description: The reaction was carried out at pH7.0 in the presence of 50 mM HEPES, 5 mM MgCl2, 0.01 μg/μl polyGlu/Tyr substrate, 5 mM DTT, 250,000 cpm radioactive ATP, and 0.4 ng/μl IGF-1R tyrosine kinase with a final volume of 100 μl at 37°C for 10 minutes. The IGF-1 receptor tyrosine kinase reaction was carried out with subsaturating concentrations of substrates for better sensitivity to activator or inhibitor influence. Test compound D-410639 was predissolved in DMSO as 20× stock. The reaction was stopped by the addition of 100 μl of 25 mM EDTA (pH8), and 85 μl of the stopped reaction mix was blotted on an inch square P81 paper. P81 paper was air dried before rinsed 5 times in Millipore water to remove non-protein phosphorus. Five mL scintillation cocktail was added to the P81 paper before the counts were read with a liquid scintillation counter.
as §1

[3] = molecular target: T3, FGF receptor 3 (Homo sapiens, UniProt P22607); experiment: FGF receptor 3 tyrosine kinase activity assay; assay type: biochemical; conditions: Fig. 6C
T3 construct: purchased R&D systems (Minneapolis, MN)
T3 sequence (P22607 23-806): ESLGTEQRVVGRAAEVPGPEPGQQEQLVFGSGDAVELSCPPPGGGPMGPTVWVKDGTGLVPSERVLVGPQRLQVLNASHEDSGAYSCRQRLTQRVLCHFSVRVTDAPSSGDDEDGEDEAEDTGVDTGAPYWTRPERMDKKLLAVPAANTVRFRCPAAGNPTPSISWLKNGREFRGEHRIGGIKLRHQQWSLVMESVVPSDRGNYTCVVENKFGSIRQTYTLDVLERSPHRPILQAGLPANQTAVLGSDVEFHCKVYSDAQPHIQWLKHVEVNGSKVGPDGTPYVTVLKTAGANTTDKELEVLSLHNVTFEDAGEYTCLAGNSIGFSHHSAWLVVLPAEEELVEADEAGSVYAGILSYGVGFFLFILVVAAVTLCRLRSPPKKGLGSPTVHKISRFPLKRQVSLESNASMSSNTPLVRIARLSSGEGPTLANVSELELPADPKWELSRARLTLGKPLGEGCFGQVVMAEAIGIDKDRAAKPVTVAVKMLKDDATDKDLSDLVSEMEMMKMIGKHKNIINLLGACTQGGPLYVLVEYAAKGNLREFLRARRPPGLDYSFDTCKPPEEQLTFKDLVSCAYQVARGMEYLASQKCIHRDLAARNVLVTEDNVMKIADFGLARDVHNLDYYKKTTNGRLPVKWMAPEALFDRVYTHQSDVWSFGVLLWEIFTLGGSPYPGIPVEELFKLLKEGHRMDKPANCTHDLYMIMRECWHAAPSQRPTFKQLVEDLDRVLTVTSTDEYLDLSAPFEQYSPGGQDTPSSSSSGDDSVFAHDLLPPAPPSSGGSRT
Description: The reaction condition of FGF receptor 3 was similar to that of EGF receptor except 0.1 μg/μl polyGlu/Tyr substrate and 0.05 ng/μl FGF-receptor 3 were used instead. All other conditions or processes were the same. The FGF receptor 3 tyrosine kinase reaction was carried out with subsaturating concentrations of substrates for better sensitivity to activator or inhibitor influence.
as §1

[4] = test system: CHO cells; experiment: in vitro; assay type: cell-based; conditions: Chinese hamster, 24 h
Description: (§2) Approximately 5,000 CHO cells suspended in 100 μl D-MEM containing 10% FBS were seeded in each well of a 96-well plate overnight before the cytotoxicity assay. Test compounds were predissolved as 10× solution in 10% DMSO, 10% ethanol, 80% PBS and 10 μl of this 10× test compound solution were added to each well. After 24 hours incubation, medium containing test compound was removed by aspiration and 3 rinses of PBS. One hundred μl of serum medium was replenished before 20 μl methylthiazolyldiphenyl-tetrazolium bromide (MTT, 2.5 mg/mL) and 1 μl phenazine methosulfate (PMS, 50 μM) was added to each well before a 3-hour further incubation at 37°C. Optical density at 450 nm was measured with an ELISA reader. LC50 is defined as the concentration of compound that causes 50% drop of cell viability in this test.

[5] = in vitro; assay type: cell-based; conditions: Chinese hamster, LC50, cytotoxicity
Description: as §2

[6] = molecular target: T4, EGF receptor (ErbB1) (Homo sapiens, UniProt P00533); experiment: EGF receptor (ErbB1) tyrosine kinase activity assay; assay type: biochemical; conditions: Fig. 6B
T4 construct: purchased R&D systems (Minneapolis, MN)
T4 sequence (P00533 25-1210): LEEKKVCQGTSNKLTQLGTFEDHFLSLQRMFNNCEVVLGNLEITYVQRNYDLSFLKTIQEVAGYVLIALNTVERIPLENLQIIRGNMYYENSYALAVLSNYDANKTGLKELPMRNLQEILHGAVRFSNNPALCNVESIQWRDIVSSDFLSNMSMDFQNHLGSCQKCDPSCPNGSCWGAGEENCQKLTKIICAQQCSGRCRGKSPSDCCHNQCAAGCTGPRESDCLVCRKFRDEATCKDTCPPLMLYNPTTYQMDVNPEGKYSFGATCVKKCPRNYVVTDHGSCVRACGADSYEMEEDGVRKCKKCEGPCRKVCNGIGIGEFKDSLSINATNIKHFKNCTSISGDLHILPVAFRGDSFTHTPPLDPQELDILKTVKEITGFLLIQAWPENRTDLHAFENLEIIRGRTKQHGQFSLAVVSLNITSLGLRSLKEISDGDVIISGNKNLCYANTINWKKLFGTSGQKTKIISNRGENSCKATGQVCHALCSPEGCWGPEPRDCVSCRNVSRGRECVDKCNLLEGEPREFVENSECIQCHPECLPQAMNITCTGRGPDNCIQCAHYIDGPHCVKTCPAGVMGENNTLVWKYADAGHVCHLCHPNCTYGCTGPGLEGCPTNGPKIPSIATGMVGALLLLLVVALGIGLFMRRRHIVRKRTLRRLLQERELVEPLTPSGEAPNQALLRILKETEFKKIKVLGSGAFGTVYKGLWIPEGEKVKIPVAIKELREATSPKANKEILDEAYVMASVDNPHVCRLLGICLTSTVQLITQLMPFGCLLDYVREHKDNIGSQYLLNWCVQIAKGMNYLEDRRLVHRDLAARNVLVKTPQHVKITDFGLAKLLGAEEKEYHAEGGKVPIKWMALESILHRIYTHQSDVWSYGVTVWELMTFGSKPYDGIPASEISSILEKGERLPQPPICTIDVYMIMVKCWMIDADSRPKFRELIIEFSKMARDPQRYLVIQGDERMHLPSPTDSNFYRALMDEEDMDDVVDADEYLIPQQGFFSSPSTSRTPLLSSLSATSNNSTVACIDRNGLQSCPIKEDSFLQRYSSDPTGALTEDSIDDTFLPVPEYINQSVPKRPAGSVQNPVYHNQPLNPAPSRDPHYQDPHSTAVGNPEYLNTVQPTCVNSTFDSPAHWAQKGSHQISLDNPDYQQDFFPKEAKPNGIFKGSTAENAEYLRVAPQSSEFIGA
Description: The reaction condition of EGF receptor (ErbB1) was similar to that of IGF-1 receptor reaction except 0.04 μg/μl polyGlu/Tyr substrate and 0.3 ng/μl EGF receptor (ErbB1) were used, and the reaction time was 15 minutes. All other conditions or processes were the same. The EGF receptor tyrosine kinase reaction was carried out with subsaturating concentrations of substrates for better sensitivity to activator or inhibitor influence.
as §1

[7] = molecular target: insulin receptor; conditions: cited from earlier work
[8] = test system: db/db mice; parameters: method as in PMID 10320380, PMID 11237209; conditions: cited from earlier work
[9] = test system: EGF receptor (ErbB1); parameters: method as in Zhang et al. [19]; conditions: ref Zhang et al. [19]; cited from earlier work
[10] = side by side comparison, Fig. 3, read-out: EC50, insulin receptor tyrosine kinase activation
[11] = read-out: EC50, insulin receptor activation, reported previously

Molecule: O=C(O)c1oc(C(=O)c2c[nH]c3c(CCCO)cccc23)c(O)c1-c1c[nH]c2ccccc12 [Compound D-410637]
- % activation, tyrosine kinase activity compared to 10 nM insulin stimulation (Study 1) [1]: 18.9%

Molecule: O=C(O)c1oc(C(=O)c2c[nH]c3c(CCCCO)cccc23)c(O)c1-c1c[nH]c2ccccc12 [Compound D-410638]
- % activation, tyrosine kinase activity compared to 10 nM insulin stimulation (Study 1) [1]: 31.3%

Molecule: O=C(O)c1oc(C(=O)c2c[nH]c3c(CCCCCO)cccc23)c(O)c1-c1c[nH]c2ccccc12 [Compound D-410639]
- increase of IGF-1 receptor activity from the base line [2]: 60-70%
- insulin receptor activation efficacy relative to 10 nM insulin (range over Study 1 and 2) ([1]; 100 μM, both studies): 72-89%
- Study 1, cpm, phosphoryl incorporation by tyrosine kinase activities [1]: 5590 cpm
- % activation, tyrosine kinase activity compared to 10 nM insulin stimulation (Study 1) [1]: 89.4%
- Study 2, cpm, phosphoryl incorporation by tyrosine kinase activities [1]: 1181 cpm
- % activation, tyrosine kinase activity compared to 10 nM insulin stimulation (Study 2) [1]: 72.3%
- pEC50 [1, 10]: 4.48
- pIC50 [3]: 4.58
- CC50 [4]: 296 µM
- fold less cytotoxic than DMAQ B1 [4]: 128 fold
- CC50 at 24 h [5]: ~296 µM
- pIC50 [6]: 5.74

Molecule: O=C(O)c1sc(C(=O)c2c[nH]c3c(CCCCCO)cccc23)c(O)c1-c1c[nH]c2ccccc12 [Compound D-410640]
- dose response of insulin receptor activation efficacy ([1]; normalized against 10 nM insulin, Fig. 4): levels off at 50 μM and tapers off by 100 μM

Molecule: CCCCCc1cccc2c(C(=O)c3oc(C(=O)O)c(-c4c[nH]c5ccccc45)c3O)c[nH]c12 [Compound D-410641]
- Study 2, cpm, phosphoryl incorporation by tyrosine kinase activities [1]: 792.7 cpm
- % activation, tyrosine kinase activity compared to 10 nM insulin stimulation (Study 2) [1]: 48.6%

Molecule: O=C(O)c1oc(C(=O)c2c[nH]c3c(CCCC(CO)CO)cccc23)c(O)c1-c1c[nH]c2ccccc12 [Compound D-410642]
- Study 2, cpm, phosphoryl incorporation by tyrosine kinase activities [1]: 659.3 cpm
- % activation, tyrosine kinase activity compared to 10 nM insulin stimulation (Study 2) [1]: 40.4%

Molecule: O=C(O)CCCCc1cccc2c(C(=O)c3oc(C(=O)O)c(-c4c[nH]c5ccccc45)c3O)c[nH]c12 [Compound D-410643]
- Study 2, cpm, phosphoryl incorporation by tyrosine kinase activities [1]: 799 cpm
- % activation, tyrosine kinase activity compared to 10 nM insulin stimulation (Study 2) [1]: 48.9%

Molecule: O=C(O)CCc1cccc2c(C(=O)c3oc(C(=O)O)c(-c4c[nH]c5ccccc45)c3O)c[nH]c12 [Compound D-410644]
- Study 2, cpm, phosphoryl incorporation by tyrosine kinase activities [1]: 357.3 cpm
- % activation, tyrosine kinase activity compared to 10 nM insulin stimulation (Study 2) [1]: 21.9%

Molecule: C=CC(C)(C)c1[nH]c2ccccc2c1C1=C(O)C(=O)C(c2c[nH]c3c(CC=C(C)C)cccc23)=C(O)C1=O [DMAQ B1, Demethylasterriquinone B1]
- pEC50 [7, 11]: 5.30
- effect on blood glucose [8]: lower blood glucose in db/db mice
- CC50 at 24 h [5]: 2.3 µM
- activation potential on EGF receptor (ErbB1) [9]: minor activation potential

Molecule: Cn1cc(C2=C(O)C(=O)C(c3ccccc3)=C(O)C2=O)c2ccccc21 [compound 2, phenylindolyldihydroxyquinone, reference compound]
- pEC50 [1, 10]: 4.41
- pEC50 [7, 11]: 6.52
- CC50 at 24 h [5]: 66.5 µM

Molecule: bovine insulin: bovine insulin, standard reference of the insulin receptor activation assay
- Study 1, cpm, phosphoryl incorporation by tyrosine kinase activities [1]: 6250 cpm
- Study 2, cpm, phosphoryl incorporation by tyrosine kinase activities [1]: 1632.5 cpm
- pEC50 ([1]; assay validation dose response curve, read-out: EC50 of bovine insulin, insulin receptor activation): ~8.29
- pEC50 ([7]; ref Liu et al. [21], read-out: EC50 of insulin, reported): 9.00

Molecule: diisoprenylindolylasterriquinone [Compound L-767827]
- insulin receptor tyrosine kinase activation potential [7]: no insulin receptor tyrosine kinase activation potential
